The results in this text go back to US7439415B2, “Population of Hoxb8 mutants and uses in identifying agents for treating repetitive behaviors” (priority 2001, dated 2008).

This experiment relates to Hoxb8 mutant animals. Kind of experiment: Fluoxetine treatment of Hoxb8 mutant mice with excessive grooming (induced grooming assay / hair regrowth). Format: in vivo, mouse. The conditions noted are these: 10 mg/kg/day via Alzet mini-osmotic pumps, thirty days of treatment.

The structures appear in SMILES notation. Structures can show the parent of a compound that is named as a salt.

As to `CNCCC(Oc1ccc(C(F)(F)F)cc1)c1ccccc1` (stereo not shown) [Flu, Fluoxetine-HCl], the “hair regrowth / efficacy against excessive grooming behavior” value is listed as “exhibited signs of hair regrowth”.
